Reference: PubChem BioAssay (NCI)
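Grown in 96-well plates, cells were treated for 48 hours with each compound at five concentrations. Insufficient inhibition: endpoint recorded as highest concentration tested. GI50 = concentration required for 50% inhibition of growth. The concentration for full growth arrest is given as TGI.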

Legend:
Assay in all cases: NCI anticancer screen, dose series, 48 h
HL-60(TB) leukemia = tested on: HL-60(TB) leukemia
HS 578T breast = tested on: HS 578T breast
MCF7 breast = tested on: MCF7 breast
OVCAR-4 ovarian = tested on: OVCAR-4 ovarian
SF-268 CNS = tested on: SF-268 CNS
SNB-19 CNS = tested on: SNB-19 CNS
SR leukemia = tested on: SR leukemia
T-47D breast = tested on: T-47D breast
PC-3 prostate = tested on: PC-3 prostate

Row | SMILES | TGI (HL-60(TB) leukemia) | TGI (HS 578T breast) | TGI (MCF7 breast) | TGI (OVCAR-4 ovarian) | TGI (SF-268 CNS) | TGI (SNB-19 CNS) | TGI (SR leukemia) | TGI (T-47D breast) | TGI (PC-3 prostate) | GI50 (HL-60(TB) leukemia) | GI50 (HS 578T breast) | GI50 (MCF7 breast) | GI50 (OVCAR-4 ovarian) | GI50 (PC-3 prostate) | GI50 (SF-268 CNS) | GI50 (SNB-19 CNS) | GI50 (SR leukemia) | GI50 (T-47D breast)
1 | COc1cc([C@@H]2c3cc4c(cc3[C@@H](Nc3ccc(NC(=O)c5cc(NC(=O)c6cc([N+](=O)[O-])cn6C)cn5C)cc3)[C@H]3COC(=O)[C@H]23)OCO4)cc(OC)c1O | 11.3 µM | > 100 µM | > 39.1 µM | > 100 µM | > 79.7 µM | > 55.1 µM | > 100 µM | > 62.8 µM |  |  |  |  |  |  |  |  |  | 
2 | O=[N+]([O-])c1cc(Cl)ccc1S(=O)(=O)c1cc(Cl)cc2c1NCCC2 | > 100 µM | > 100 µM | > 100 µM | > 100 µM | > 100 µM | > 100 µM | > 100 µM |  | > 100 µM |  |  |  |  |  |  |  |  | 
3 | Cn1c(=O)c2[nH]c(-n3nc(-c4ccccc4)cc3N)nc2n(C)c1=O | 61.2 µM |  | > 100 µM | 93.5 µM | > 100 µM |  | > 100 µM | 65.9 µM | > 100 µM |  |  |  |  |  |  |  |  | 
4 | COC1CCC(n2c([C@@H]3CCCC(=O)N3c3ccc(F)c(F)c3)nc3cc(-c4c(C)noc4C)ccc32)CC1 (some centres undefined) | 36.4 µM | 9.86 µM | 15.1 µM | 26.5 µM | 56.4 µM | > 100 µM | > 100 µM | 50.7 µM | 44.1 µM | 0.851 µM | 2.1 µM | 0.626 µM | 0.782 µM | 3.5 µM | 14.6 µM | 9.31 µM | 0.755 µM | 2.03 µM
5 | CC1=CC(=O)/C(=C/N2CCNC2=S)C(=O)O1 | > 100 µM | > 100 µM | > 100 µM | > 100 µM | > 100 µM | > 100 µM |  | > 100 µM | > 100 µM |  |  |  |  |  |  |  |  | 
6 | CC(C)C[C@H](NC(=O)[C@H](CCc1ccccc1)NC(=O)c1ccc2ccccc2n1)B(O)O | 0.0955 µM | 0.442 µM | 4.2 µM | 3.09 µM | 0.397 µM | 13.1 µM |  |  | 1.19 µM |  |  |  |  |  |  |  |  | 
7 | CCOC(=O)O/N=C1/C(c2c(O)[nH]c3ccccc23)=Nc2ccccc21 | 24.1 µM | 51.8 µM | 18.4 µM | 45.2 µM | 68.2 µM | 95.1 µM | > 100 µM | 25.6 µM |  |  |  |  |  |  |  |  |  | 
8 | O=[N+]([O-])c1ccc(-[n+]2ccc3ccccc3c2)c([N+](=O)[O-])c1 | 3.71 µM | 49.6 µM | 3.75 µM | 3.04 µM | 11.9 µM | 34.7 µM | > 100 µM | 4.35 µM | 13.1 µM |  |  |  |  |  |  |  |  | 
9 | O=[N+]([O-])c1ccc(Cl)cc1N/N=C/c1cccs1 | > 100 µM | > 100 µM | > 100 µM | > 100 µM | > 100 µM | > 100 µM | > 100 µM | > 100 µM | > 100 µM |  |  |  |  |  |  |  |  | 
10 | O=C(c1ccccc1)n1[nH]c(=O)n(-c2ccc(Cl)cc2)c1=O | > 100 µM | > 100 µM | > 100 µM | > 100 µM | > 100 µM | 83.3 µM | > 100 µM | > 100 µM | > 100 µM |  |  |  |  |  |  |  |  | 
11 | Cc1nc2ccccc2cc1C[N+]12CN3CN(CN(C3)C1)C2 |  | > 100 µM | 27.7 µM | 64.9 µM | 51 µM | 56.5 µM | > 100 µM | > 100 µM | 34.3 µM |  |  |  |  |  |  |  |  | 
12 | C=C1[C@H](OCC(C)C)[C@@H](OC(=O)C(C)CC)[C@@H](O)C(C)(C)/C=C/[C@H](C)C(=O)[C@@]2(O)C[C@H](C)[C@H](O)[C@@H]2[C@H]1OC(=O)C(C)CC (some centres undefined) | 19 µM | 10.6 µM | > 16 µM | > 20 µM | > 20 µM | > 20 µM | > 10.5 µM | > 20 µM | > 14.8 µM |  |  |  |  |  |  |  |  | 
13 | Cc1nc(N)nc(N)c1N1CCN(Cc2ccccc2)CC1 | > 100 µM | > 100 µM | > 100 µM | > 100 µM | > 100 µM | > 100 µM | > 100 µM | > 100 µM | > 100 µM |  |  |  |  |  |  |  |  | 
14 | O=C(CCC(=O)OCC1OC(O)(CC2OC(CO)C(O)C(O)C2O)C(O)C1O)OCc1ccccc1 (centres undefined) | > 100 µM | > 100 µM | > 100 µM | > 100 µM | > 100 µM | > 100 µM |  | > 100 µM | > 100 µM |  |  |  |  |  |  |  |  | 
15 | CCOC(=O)/C=C(/C(=O)OCC)n1ccc(=O)[nH]c1=O | 4.08 µM | 37.9 µM | 14.9 µM | 38.7 µM | 39.6 µM | 29.8 µM | 16.8 µM | 16.6 µM | 26.8 µM |  |  |  |  |  |  |  |  | 
16 | C/C(=N\NC(=O)N/N=C(\C)c1ccccn1)c1ccccn1 | > 100 µM | > 100 µM | > 100 µM | > 100 µM | > 83.9 µM | > 100 µM | > 100 µM | > 100 µM | > 100 µM |  |  |  |  |  |  |  |  | 
17 | O=Cc1cc(O)c(O)c(/C=N/n2c3ccccc3c3ccccc32)c1 | 6.32 µM | > 100 µM | 4.62 µM | 13.5 µM | 20 µM | > 100 µM | 21.4 µM | 40.4 µM | 28.7 µM |  |  |  |  |  |  |  |  | 
18 | N#CI1OC(C(F)(F)F)(C(F)(F)F)c2ccccc21 | > 100 µM |  | 42.3 µM | 30.6 µM | 73.9 µM |  |  | 49.3 µM | 30.1 µM |  |  |  |  |  |  |  |  | 
19 | CCOC(=O)C12C(=O)CCN1CCc1ccccc1C2C (centres undefined) | > 100 µM | > 100 µM | > 100 µM | > 100 µM | > 100 µM | > 100 µM | > 100 µM | > 100 µM | > 100 µM |  |  |  |  |  |  |  |  | 
20 | CCOC(=O)CCC(NC(=O)c1ccc(NCc2ccc3nc(-c4ccccc4)c(Cl)nc3c2)c2ccccc12)C(=O)OCC (centres undefined) |  |  | > 100 µM | > 100 µM | > 100 µM | > 100 µM |  | > 100 µM | > 100 µM |  |  |  |  |  |  |  |  | 
21 | CSc1nc(=O)c(C#N)c(-c2ccccc2)n1C1OC(COC(C)=O)C(OC(C)=O)C(OC(C)=O)C1OC(C)=O (centres undefined) | > 100 µM | > 100 µM | > 100 µM | > 100 µM | > 100 µM | > 100 µM | > 100 µM | > 100 µM | > 100 µM |  |  |  |  |  |  |  |  | 
22 | Cc1ccc(C2(c3ccc(C)c(O)c3C)CCN(C)CC2)c(C)c1O |  | > 100 µM |  | > 100 µM | > 100 µM | > 100 µM | > 100 µM | > 100 µM | > 100 µM |  |  |  |  |  |  |  |  | 
